These results are taken from patent US7488855B2 (CJ Corporation, priority 2004, dated 2009).

≈ marks a conversion by molar mass, not a printed value.

This data set can be described thus: Solubility in ethyl acetate by fractionation and phase separation, HPLC analysis of the solvent layer. Type of data set: physicochemical.

For the molecule `CC(O)CO` (centres unmarked) [1,2-propanediol], the “solubility in EA” value (ethyl acetate, mixture 10:1:2:2 dissolved at 30-100 g/L 1,3-propanediol, left alone for 2 hours, upper solvent layer analysed by HPLC) fell in the range of 5000 to 7000 µg/mL.
Consider `OCC(O)CO` [glycerol], for which the solubility – broadly, the dissolved amount per volume that the medium holds – at 2 h (organic solvent or mixture) lay in the range of 3000 to 6000 µg/mL (≈ 32.6 to 65.2 mM).
